These results are taken from article PMC9897032, “How Many Sirtuin Genes Are Out There? Evolution of Sirtuin Genes in Vertebrates With a Description of a New Family Member” (Molecular Biology and Evolution, 2023).

The assay deals with T1, human SIRT3 (Homo sapiens, UniProt Q9NTG7).
T1 construct: recombinant enzyme supplied with Abcam fluorometric SIRT3 activity kit
T1 sequence (Q9NTG7 102-399): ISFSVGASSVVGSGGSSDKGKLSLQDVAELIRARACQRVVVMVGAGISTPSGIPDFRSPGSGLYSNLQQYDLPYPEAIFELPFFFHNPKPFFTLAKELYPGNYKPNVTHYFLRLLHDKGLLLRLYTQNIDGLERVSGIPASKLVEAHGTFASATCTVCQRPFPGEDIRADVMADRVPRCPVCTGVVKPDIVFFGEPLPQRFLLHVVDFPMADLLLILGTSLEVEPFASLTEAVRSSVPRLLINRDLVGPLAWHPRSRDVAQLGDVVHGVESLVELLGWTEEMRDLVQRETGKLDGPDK
The assay can be described thus: fluorometric deacetylation assay, acetylated substrate peptide (Abcam ab156067). The settings on record: activator; 37 °C; NAD+ dependent assay. Type of assay: biochemical.

Regarding `Oc1ccc(/C=C/c2cc(O)cc(O)c2)cc1` [REV, resveratrol], the “fold increase in activity at 100 μM” value is given as 1.6 ± 0.1 fold.
